# Data: patent publication US5519028A, “Antiviral preparations” (priority 1992, dated 1996)
# Entries after “also recorded” stand apart in the source; their conditions may differ. Where two headings read alike, the source gives them in different places.
# Key:
# in vivo = conditions: for LD50 at 336 h / LD50 safety limits: rat, in vivo
# Description: In accordance with the invention, flavopereirine is administered orally in the forms of capsules to patients infected with HIV at levels of 1-3 grams per day.
# [1] = Penetration of the blood-brain barrier (encephalic content); format: in vivo, male CDI mice; conditions: 10 mg orally
# HIV = format: cell-based
# MT4 cells = assay: Cellular toxicity in MT4 cells; format: cell-based; conditions: d3, duplicate
# HIV-1 BRE1 (HIV-1Asym.) = assay: HIV P24 production, target PBMC pretreated, isolate BRE1; format: cell-based; conditions: for Post-infection production of HIV P24: PBMC + 30 μg/ml 2 hours
# Description: To test the efficacy of flavopereirine on the infectious capability of HIV-1, two experiments were conducted. […] After 2 hours of incubation, the cells were rinsed twice and cultivated in 1 ml of RPMI 1640 containing 20 IU of IL-2 per ml (Boehringer […], Germany), 2 μg of Polybrene (hexadimethrine bromide) per ml (Sigma, St. Louis, Mo., USA) and 10^-7 IU of goat antiserum acting against human alpha interferon (Janssen, Beerse, Belgium) per ml. Half the culture was changed after 72 hours, and thereafter every 48 hours until the 30th day. […] The surface material of the culture was tested by an immuno-enzymatic (ELISA) assay for the production of antigen P24 (Abbott, Chicago, Ill., USA) and the optical density (OD) of the resulting color was converted into P24 concentration from the slope of a standard nomogram, as described by W. Lu and J. -M. Andrieu, Journal of Virology, 66(1): 334-340 (1992).
# [2] = Cytotoxicity (viability) in resting PBMC; format: cell-based, human; conditions: human, pbmc, read-out: Viability of PBMC after exposure; for viability at 72 h: d3; for viability at 168 h: d7; for viability at 264 h: d11; for viability at 312 h: d13; for viability at 360 h: d15
# Description: (§1) To evaluate the cytotoxicity of flavopereirine in resting PBMC and in blast cells, prewashed fresh and blastic PBMC taken from five randomly-selected,healthy, HIV-negative donors were treated in triplicate with 30 or 60 μg flavopereirine per ml of alcoholic solution for two hours, After washing twice, the cells were placed in culture in cellular culture medium until day 15. The viability of the cells of each group was examined by exclusion coloring with trypan blue and by quantimetric analysis. Cultures of HIV-negative PBMC without flavopereirine (compound H) were used as controls.
# human PBMC at rest = assay: Cytotoxicity (viability) in resting PBMC; format: cell-based
# Description: as §1
# [3] = Cytotoxicity (viability) in blastic PBMC; format: cell-based, human; conditions: human, pha-stimulated pbmc, blastic, read-out: Viability of PBMC after exposure; for viability at 72 h: d3; for viability at 168 h: d7; for viability at 264 h: d11; for viability at 312 h: d13; for viability at 360 h: d15
# Description: as §1
# [4] = test system: PBMC stimulated by PHA (blastic); assay: Cytotoxicity (viability) in blastic PBMC; format: cell-based, human; conditions: 30 or 60 μg/ml
# Description: as §1
# TNF-α [5] = assay: TNF-α production by monocytes of normal donors; format: cell-based, human
# Description: (§2) The effects of flavopereirine on the production of primary (IL-1β and TNF-α) and secondary (IL-6) cytokines by monocytes was also tested. The adhesive monocytes used were taken from the blood of two types of donors:
# Normal donors--voluntary blood donors who attended the blood bank of the Pitie-Salpetriere Hospital, Paris, France; and
# Product H was not used in these experiments at a rate of more than 20 μg/ml water, since above this rate, net toxicity could have been produced.
# TNF-α [6] = assay: TNF-α production by monocytes of HIV-positive donors; format: cell-based, human
# Description: as §2
# (§3) HIV-positive donors from medical consultations. These individuals were in the early stages of HIV infection and, at the moment of taking the blood, were not undergoing any treatment. The risk factors involved were intravenous drug abuse for six of the donors, sexual transmission for three and blood transfusion (in Zaire) for one patient. No correlation was found between the risk factors and the results of the experiments.
# (§4) The response of the monocytes taken from the various HIV-positive donors was tested in terms of spontaneous response. The quantities of cells received were low (the donors were not affected by cytapheresy), and the experiments were therefore limited by the number of cells available.
# interleukin-6 = assay: IL-6 production by monocytes of HIV-positive donors; format: cell-based, human
# Description: as §2, §3, §4
# Interleukin-4 was used at the same time as flavopereirine H, since it has been shown prior to these experiments that this cytokine blocks the spontaneous production of interleukin-6 in certain HIV-positive patients.
# In five cases, […] was used for comparison, since this, too, blocks the production of IL-6 in normal monocytes stimulated by LPS.
# HIV-1 [7] = test system: HIV-1
# influenza virus = conditions: cited from earlier work
# HIV-1 [8] = assay: microbe, parasite or virus in culture; conditions: Human immunodeficiency virus 1, PBMC, read-out: concentration totally inhibiting replication of HIV-1
smiles,measurement,setting,value
CCc1ccc2c3[nH]c4ccccc4c3cc[n+]2c1 [flavopereirine],LD50 at 336 h,in vivo; ip,2450 mg/kg
same,LD50 safety limits,in vivo; ip,2350 to 2550 mg/kg
same,LD50 at 336 h,in vivo; po,10400 mg/kg
same,LD50 safety limits,in vivo; po,9630 to 11350 mg/kg
same,change in mortality rate,"in vivo; subsequent 14 days, surviving animals",No change in mortality rate
same,encephalic flavopereirine concentration,"[1]; 20 g mice, brains 0.5 g",14 µg/g
same,encephalic flavopereirine content,[1]; mice,approximately 7 μg
same,penetration of the blood-brain barrier,[1]; mice,observed to penetrate the blood-brain barrier
same,infectious units detectable,HIV,≤ 3000
same,inhibition of infection,HIV,exceeds 99%
same,reduction in quantity of infected cells,HIV; h-9 cells,around 40%
same,cellular toxicity,"MT4 cells; 100 μg/ml, Table I",cellular toxicity
same,cellular toxicity,"MT4 cells; 100 μg/ml, Table I, listed as H",Tox
same,cellular toxicity,"MT4 cells; 100 μg/ml, Table II",Tox
same,cellular toxicity,"MT4 cells; 400 μg/ml, Table I",cellular toxicity
same,cellular toxicity,"MT4 cells; 400 μg/ml, Table I, listed as H",Tox
same,Post-infection production of HIV P24,HIV-1 BRE1 (HIV-1Asym.); d3,113 ± 7 pg/mL
same,Post-infection production of HIV P24,HIV-1 BRE1 (HIV-1Asym.); d5,> 1500 pg/mL
same,inhibition of productive viral infections,HIV-1 BRE1 (HIV-1Asym.); target PBMC pretreated with 60 μg/ml only,complete inhibition of productive viral infections
same,viability at 72 h,[2]; 30 μg/ml 2 hrs,95 ± 4%
same,viability at 168 h,[2]; 30 μg/ml 2 hrs,93 ± 2%
same,viability at 264 h,[2]; 30 μg/ml 2 hrs,88 ± 7%
same,viability at 312 h,[2]; 30 μg/ml 2 hrs,82 ± 10%
same,viability at 360 h,[2]; 30 μg/ml 2 hrs,81 ± 11%
same,viability at 72 h,[2]; 60 μg/ml 2 hrs,56 ± 6%
same,viability at 168 h,[2]; 60 μg/ml 2 hrs,23 ± 4%
same,viability at 264 h,[2]; 60 μg/ml 2 hrs,17 ± 4%
same,viability at 312 h,[2]; 60 μg/ml 2 hrs,12 ± 5%
same,viability at 360 h,[2]; 60 μg/ml 2 hrs,25 ± 8%
same,significant reduction of viability of resting PBMC,human PBMC at rest; 30 μg/ml,this was not the case
same,viability of resting PBMC,"human PBMC at rest; 60 μg/ml, p<0.05",reduced significantly
same,viability at 72 h,[3]; 30 μg/ml 2 hrs,88 ± 3%
same,viability at 168 h,[3]; 30 μg/ml 2 hrs,35 ± 7%
same,viability at 264 h,[3]; 30 μg/ml 2 hrs,71 ± 3%
same,viability at 312 h,[3]; 30 μg/ml 2 hrs,76 ± 9%
same,viability at 360 h,[3]; 30 μg/ml 2 hrs,69 ± 8%
same,viability at 72 h,[3]; 60 μg/ml 2 hrs,79 ± 4%
same,viability at 168 h,[3]; 60 μg/ml 2 hrs,74 ± 5%
same,viability at 264 h,[3]; 60 μg/ml 2 hrs,70 ± 4%
same,viability at 312 h,[3]; 60 μg/ml 2 hrs,71 ± 8%
same,viability at 360 h,[3]; 60 μg/ml 2 hrs,63 ± 7%
same,viability of blastic cells,[4],appeared to be independent of exposure to compound H
same,direct activity on production of TNF-α,"TNF-α [5]; donor 7, one dose only",Increase in the production of TNF-α
same,indirect activity on production of TNF-α,"TNF-α [5]; stimulated monocytes, heavy dosage only (20 βg/ml as printed), p<0.05",sharp reduction in production
same,indirect activity on production of TNF-α,"TNF-α [6]; 20 μg/ml only, p<0.05",almost total reduction in the production of TNF-α
same,direct activity on base production of TNF-α,TNF-α [6]; HIV-positive donors,No modification on the base production was observed
same,effect on spontaneous production of IL-6,"interleukin-6; alone, dosage effect, never total, p<0.05, listed as Product H",inhibitory effect with a very clear dosage effect; also recorded: inhibited the spontaneous production of IL-6 shown in some HIV-positive patients
same,effect on spontaneous production of IL-6 with interleukin-4,"interleukin-6; in presence of interleukin-4, listed as product H",an amplification effect was almost always obtained
same,concentration for total disappearance of IL-6 production,"interleukin-6; with interleukin-4, almost always (except case #4), p<0.05",3 µg/mL
same,concentration for total disappearance of IL-6 production (often),"interleukin-6; with interleukin-4, often, p<0.05",1 µg/mL
same,Production of P24 in HIV,"HIV-1 [7]; 50% AB serum, 10 μg/ml 2 hrs, d4",384 ± 83 pg/mL
same,Production of P24 in HIV,"HIV-1 [7]; 50% AB serum, 10 μg/ml 2 hrs, d10",> 1500 pg/mL
same,Production of P24 in HIV,"HIV-1 [7]; 50% AB serum, 30 μg/ml 2 hrs, d4",275 ± 98 pg/mL
same,Production of P24 in HIV,"HIV-1 [7]; 50% AB serum, 30 μg/ml 2 hrs, d10",> 1500 pg/mL
same,efficacy on inhibition of wild HIV-1 in human serum,HIV-1 [7]; 50% human serum,remained unchanged
same,influence of constituents of human serum,HIV-1 [7]; HIV-1 inhibition at non-cytotoxic concentrations,did not appear to be influenced by the constituents of the human serum
same,Production of P24 in HIV,"HIV-1 [7]; no serum, 10 μg/ml 2 hrs, d4",388 ± 124 pg/mL
same,Production of P24 in HIV,"HIV-1 [7]; no serum, 10 μg/ml 2 hrs, d10",> 1500 pg/mL
same,Production of P24 in HIV,"HIV-1 [7]; no serum, 30 μg/ml 2 hrs, d4",173 ± 102 pg/mL
same,Production of P24 in HIV,"HIV-1 [7]; no serum, 30 μg/ml 2 hrs, d10",> 1500 pg/mL
same,activity against the influenza virus,influenza virus; EP-A-0 059 817,active against the influenza virus
same,action against influenza (RNA virus),influenza virus; in vivo,appears to act in vivo against influenza
same,IC100,HIV-1 [8],60 to 100 µg/mL
